# According to ChEMBL document CHEMBL4680314, “Discovery of potent glycogen synthase kinase 3/cholinesterase inhibitors with neuroprotection as potential therapeutic agent for Alzheimer's disease” (Bioorg Med Chem, 2021):
# Target: Acetylcholinesterase (Homo sapiens, UniProt P22303)
# Experiment: Inhibition of human recombinant AChE expressed in HEK293 cells using acetylthiocholine iodide as substrate incubated for 10 mins by Ellman's method
# Assay type: cell-based
# Settings: not given
# Acetylcholinesterase, sequence (P22303 whole entry): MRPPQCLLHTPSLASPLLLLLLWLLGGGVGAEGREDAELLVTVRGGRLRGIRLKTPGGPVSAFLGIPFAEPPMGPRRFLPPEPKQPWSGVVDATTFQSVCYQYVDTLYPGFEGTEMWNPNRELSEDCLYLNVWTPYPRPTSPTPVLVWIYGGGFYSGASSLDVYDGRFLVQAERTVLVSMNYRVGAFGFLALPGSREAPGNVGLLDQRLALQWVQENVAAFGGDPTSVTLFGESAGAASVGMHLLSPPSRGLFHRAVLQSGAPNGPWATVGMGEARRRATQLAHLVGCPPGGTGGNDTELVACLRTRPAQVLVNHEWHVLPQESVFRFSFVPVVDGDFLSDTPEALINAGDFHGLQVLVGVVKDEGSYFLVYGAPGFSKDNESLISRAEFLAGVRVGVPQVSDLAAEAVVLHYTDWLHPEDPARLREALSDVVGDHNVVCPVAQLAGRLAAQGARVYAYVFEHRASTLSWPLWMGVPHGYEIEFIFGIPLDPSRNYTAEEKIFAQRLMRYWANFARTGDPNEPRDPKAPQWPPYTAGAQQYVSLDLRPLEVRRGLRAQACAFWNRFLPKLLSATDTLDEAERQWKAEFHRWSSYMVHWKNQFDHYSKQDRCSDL
row,Compound,IC50
1,NC(=O)c1sc(-c2ccnc(NC(=O)C3CC3)c2)nc1OCCC1CCN(Cc2ccccc2)CC1,0.73 µM
2,NC(=O)c1sc(-c2ccnc(NC(=O)C3CC3)c2)nc1O,> 1000 µM
3,CNC(=O)c1sc(-c2ccnc(NC(=O)C3CC3)c2)nc1OCC1CCN(Cc2cccc(Br)c2)CC1,394 µM

# Tested on: not listed separately
# Experiment: in vitro
# Settings: PAMPA
# Description: Effective permeability of compound in PBS/EtOH buffer (7:3) at 25 ug/ml incubated for 18 hrs by PAMPA-BBB assay
row,Compound,"Papp at 18 h, 25 ug/ml"
1,NC(=O)c1sc(-c2ccnc(NC(=O)C3CC3)c2)nc1OCCC1CCN(Cc2ccccc2)CC1,8.8 ×10⁻⁶ cm/s

# Target: Cholinesterase (Homo sapiens, UniProt P06276)
# Sequence (P06276 whole entry): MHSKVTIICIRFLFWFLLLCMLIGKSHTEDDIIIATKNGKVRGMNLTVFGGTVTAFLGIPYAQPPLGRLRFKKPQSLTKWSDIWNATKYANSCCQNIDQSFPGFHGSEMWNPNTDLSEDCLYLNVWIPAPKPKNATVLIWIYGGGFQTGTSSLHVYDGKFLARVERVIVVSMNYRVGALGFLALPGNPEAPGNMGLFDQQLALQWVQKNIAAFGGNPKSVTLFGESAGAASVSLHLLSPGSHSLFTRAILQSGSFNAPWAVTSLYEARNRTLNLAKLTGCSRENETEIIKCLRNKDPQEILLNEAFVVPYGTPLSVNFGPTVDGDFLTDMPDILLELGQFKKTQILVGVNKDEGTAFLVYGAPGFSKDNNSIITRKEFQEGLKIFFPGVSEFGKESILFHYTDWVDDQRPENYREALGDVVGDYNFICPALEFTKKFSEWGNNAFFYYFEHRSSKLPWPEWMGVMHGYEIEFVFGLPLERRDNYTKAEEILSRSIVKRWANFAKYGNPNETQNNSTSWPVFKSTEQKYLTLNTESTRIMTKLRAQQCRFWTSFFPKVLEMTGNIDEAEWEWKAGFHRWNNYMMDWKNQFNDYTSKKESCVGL
# Experiment: Inhibition of human BChE using butyrylthiocholineiodide as substrate incubated for 10 mins by Ellman's method
# Settings: not given
row,Compound,IC50
1,NC(=O)c1sc(-c2ccnc(NC(=O)C3CC3)c2)nc1OCCC1CCN(Cc2ccccc2)CC1,15.3 µM
2,NC(=O)c1sc(-c2ccnc(NC(=O)C3CC3)c2)nc1O,> 1000 µM
3,CNC(=O)c1sc(-c2ccnc(NC(=O)C3CC3)c2)nc1OCC1CCN(Cc2cccc(Br)c2)CC1,15 µM

# Target: Glycogen synthase kinase-3 beta (Homo sapiens, UniProt P49841)
# Sequence (P49841 whole entry): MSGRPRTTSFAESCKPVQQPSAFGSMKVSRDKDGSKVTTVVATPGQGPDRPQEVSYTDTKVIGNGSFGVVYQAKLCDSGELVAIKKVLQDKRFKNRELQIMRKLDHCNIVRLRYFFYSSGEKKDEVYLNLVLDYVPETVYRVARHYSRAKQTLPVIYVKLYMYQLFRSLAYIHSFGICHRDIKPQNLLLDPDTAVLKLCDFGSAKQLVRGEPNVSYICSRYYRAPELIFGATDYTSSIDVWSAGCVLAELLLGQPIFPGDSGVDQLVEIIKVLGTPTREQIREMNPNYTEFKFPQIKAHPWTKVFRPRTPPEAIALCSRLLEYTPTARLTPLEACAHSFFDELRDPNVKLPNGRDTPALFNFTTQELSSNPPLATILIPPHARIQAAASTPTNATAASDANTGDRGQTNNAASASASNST
# Experiment: biochemical
# Settings: not given
row,Compound,IC50
1,NC(=O)c1sc(-c2ccnc(NC(=O)C3CC3)c2)nc1OCCC1CCN(Cc2ccccc2)CC1,19 nM
2,NC(=O)c1sc(-c2ccnc(NC(=O)C3CC3)c2)nc1O,11 nM
3,CNC(=O)c1sc(-c2ccnc(NC(=O)C3CC3)c2)nc1OCC1CCN(Cc2cccc(Br)c2)CC1,49 nM
